One molecule from publication PMC9501633, “Synthesis, Characterisation and Mechanism of Action of Anticancer 3-Fluoroazetidin-2-ones” (Pharmaceuticals, 2022) can be followed below.

Data set [1] in a line: Stability in phosphate buffers (HPLC). In kind it is physicochemical. As for the experimental part: (§1) The β-lactam ring is known to undergo hydrolysis/degradation depending on the substituent type on the ring. For example, degradation of monocyclic β-lactam antibiotic aztreonam increased with elevated humidity, temperature and acidic pH buffer. Ezetimibe, a monocyclic β-lactam drug used to reduce blood cholesterol, undergoes degradation and hydrolysis more rapidly in neutral and basic pH conditions than in acidic pH [71]. The stability of representative compounds 33 and 39 was also determined at pH 4, pH 7.4 (plasma) and pH 9 (intestine) by HPLC. […] The electron-withdrawing effect of the 3-fluoro substituent may result in decreasing stability of the β-lactam ring in response to acid hydrolysis.
(§2) The stability study for compounds 33 and 39 was performed using analytical HPLC (Symmetry column (C18, […], 4.6 × 150 mm), dual wavelength absorbance detector (Waters 2487), binary HPLC pump (Waters 1525) and autosampler (Waters 717 plus)) with mobile phase acetonitrile (70%)/water (30%), flow rate 1 mL/min over 15 min and detection at λ 254 nm. Stock solutions of compounds 33 and 39 (1 mg/mL in mobile phase) were used. Dilutions of 0.5 mg/mL, 0.25 mg/mL, 0.125 mg/mL, 0.0625 mg/mL, 0.03125 mg/mL, 0.015625 mg/mL and 0.0078 mg/mL were prepared for the calibration curve. (i) Stability of 33 and 39 in phosphate buffers: The phosphate buffers were prepared in accordance with the British Pharmacopoeia 2020 at pH values 4, 7.4 and 9. Stock solution, 300 µL (1 mg/mL ACN), was added to a vial containing buffer (9.7 mL), mixed and pre-heated to 37 °C. 1 mL of the solution was introduced into an HPLC vial. Samples (10 µL) were injected and analysed at time intervals of t = 0 min, 5 min, 30 min, 60 min and hourly for 24 h. The analysis was performed in triplicate. (ii) Thermal stability: Compounds 33 and 39 (1 mL stock solution) were each placed in a vial for 4 h at 60 °C on a heating block. The sample was then cooled, diluted with acetonitrile and analysed by HPLC. (iii) Photostability study: Compounds 33 and 39 (stock solution, 1 mL) were placed in a vial, exposed to UV light for 4 h and then analysed by HPLC. (iv) Stability in acidic conditions: HCl (0.1 M, 0.2 mL) was added to stock solutions (0.8 mL) of 33 and 39 in a vial. The vial was vortexed and retained at room temperature. A sample was neutralised with NaOH (0.1 M, 0.2 mL) each hour for 4 h and then analysed by HPLC. (v) Stability of 33 and 39 in basic (alkaline) conditions: NaOH (0.1 M, 0.2 mL) was added to stock solution (0.8 mL) in a vial. The vial was vortexed and retained at room temperature. A sample was neutralised with HCl (0.1 M, 0.2 mL) every hour for 4 h then analysed by HPLC. (vi) Stability of 33 and 39 in oxidising conditions: H2O2 (3%, 0.2 mL) was added to the stock solution (0.8 mL). The vial was vortexed to obtain a homogeneous mixture and retained at room temperature, and a sample was analysed by HPLC every hour for 4 h.

The subject of the next data set is Bax. Nature of the data set: Western blot of apoptosis regulatory proteins in MCF-7 cells. In kind it is cell-based, human. As to conditions: MCF-7, 0.05, 0.1 and 0.5 μM, 48 and 72 h, dose-dependent. As for the experimental part: (§3) The selective Bcl-2 inhibitor venetoclax was developed as a BH3-mimetic that binds to the pro-survival protein Bcl-2 and inhibits its ability to bind Bax or Bak. Venetoclax has been approved for clinical use in the treatment of chronic lymphocytic leukaemia (CLL). Compound 33 induced downregulation of Bcl-2 expression with corresponding upregulation of Bax at 48 h in a dose-dependent manner. This effect was further increased at 72 h.
(§4) Western blot analysis was performed according to the protocols we previously described. MCF-7 cells were seeded at a density of 1 × 10^5 cells/flask in T25 flasks. After 48 h, whole cell lysates were prepared from untreated cells or cells treated with vehicle control (EtOH, 0.1% v/v) or cells treated with compound 33 (0.05 μM, 0.1 μM and 0.5 μM). MCF-7 cells were harvested in RIPA buffer which was supplemented with protease inhibitors (Roche Diagnostics, Rotkreuz, Switzerland), phosphatase inhibitor cocktail 2 (Sigma-Aldrich, Arklow, Ireland) and phosphatase inhibitor cocktail 3 (Sigma-Aldrich, Arklow, Ireland). Equal amounts of protein (as determined by a BCA assay) were resolved by SDS-PAGE (12%) followed by transfer to PVDF membranes. […] Proteins were detected using enhanced chemiluminescent Western blot detection (Clarity Western ECL substrate) (Bio-Rad) on the ChemiDoc MP System (Bio-Rad). […]
(In western blotting, separated proteins are transferred to a membrane and probed.)

A further data set relates to Bcl-2. The description is as above. Format: cell-based, human. As to conditions: MCF-7, 0.05, 0.1 and 0.5 μM, 48 and 72 h, dose-dependent. How it is done: as §3, §4
Data set [2] is described as follows: Stability under degradation conditions (HPLC). In kind it is physicochemical. How it is done: as §1, §2

As a reminder, the fraction remaining is the share of the starting amount still present when the sample was taken. Turning to `COc1ccc(C2C(F)C(=O)N2c2cc(OC)c(OC)c(OC)c2)cc1F` (centres unmarked) [Compound 33, 3-Fluoro-4-(3-fluoro-4-methoxyphenyl)-1-(3,4,5-trimethoxyphenyl)azetidin-2-one], the share remaining at 24 h, 0.03 mg/mL in data set [1] (phosphate buffer pH 4, 37 °C) came out at 76%; in data set [1] (phosphate buffer pH 7.4, 37 °C), 87%; in data set [1] (phosphate buffer pH 9, 37 °C), 26%. In addition, the amount remaining at 0.03 mg/mL in data set [1] (phosphate buffer, pH 11 (as printed in Table S7)) amounted to 26%. Also, in the data set with Bax, the Bax expression result is recorded as “upregulation”. The Bcl-2 expression result with Bcl-2 is reported as “downregulation”. Also, the amount remaining at 4 h, 0.8 mg/mL in data set [2] (0.1 M HCl added to stock solution, acidic (0.1 M HCl)) amounted to 60%; in data set [2] (0.1 M NaOH added to stock solution, alkaline (0.1M NaOH)), 65%; in data set [2] (3% H2O2 added to stock solution, oxidative (3% H2O2)) it was 65%. Besides, the share remaining at 4 h, 1 mg/mL stood at 88% in data set [2] (stock solution in acetonitrile/water under UV light, UV light) and 90% in data set [2] (stock solution in acetonitrile/water, heated, heat (60 °C)).
